The subject of experiment [1] is M. tuberculosis pyrG mutant 88.7 (V186G). It is filed as cell-based, Mycobacterium tuberculosis.
Experiment [2] deals with M. tuberculosis ethA mutant 81.10 (Δ1109–1137). It is filed as cell-based, Mycobacterium tuberculosis.
The target in experiment [3] is PyrG V186G mutant (Mycobacterium tuberculosis, UniProt P9WHK7, V186G). Type of experiment: biochemical, M. tuberculosis.
The subject of experiment [4] is M. tuberculosis 82.14 (ethA W45R, pyrG V186G). Type of experiment: cell-based, Mycobacterium tuberculosis.
The subject of experiment [5] is M. tuberculosis 82.19 (ethA L129P, pyrG V186G). It is filed as cell-based, Mycobacterium tuberculosis.
Experiment [6] concerns M. tuberculosis 82.22 (ethA ΔT-94, pyrG V186G). It is filed as cell-based, Mycobacterium tuberculosis.
The test system of experiment [7] is M. tuberculosis 88.10 (pyrG V186G). It is filed as cell-based, Mycobacterium tuberculosis.

From PMC4521081, “Thiophenecarboxamide Derivatives Activated by EthA Kill Mycobacterium tuberculosis by Inhibiting the CTP Synthetase PyrG” (Chemistry & Biology, 2015) come the findings set out here.

Each structure is given as a SMILES string. ≈ marks a conversion by molar mass, not a printed value.

Usually MIC stands for the lowest concentration found to suppress growth. Molecule `COc1ccc(NC(=O)c2cc([N+](=O)[O-])c(C)s2)cc1OC` [compound 11326054] yielded an MIC in experiment [1] above 8 µg/mL. The “resistance of 81.10 mutant (mutated in ethA gene)” value in experiment [2] is recorded as “resistant”.
`CC1=CC=C(C(=O)Nc2ccc([N+](=O)[O-])cc2)S1(=O)=O` [compound 11426026] showed an MIC in experiment [1] of 2.5 µg/mL (≈ 8.5 µM). For the same molecule, in experiment [2], the MIC came to 1 µg/mL (≈ 3.4 µM). In experiment [3], the “% of inhibition at 200 M PyrG V186G mutant” value came to 18.3 ± 1.5% and the “activity against PyrG V186G mutant” value was “not active”.
In the case of `Cc1ccc(C(=O)Nc2ccc([N+](=O)[O-])cc2)s1` [compound 7947882, 5-methyl-N-(4-nitrophenyl)thiophene-2-carboxamide], the MIC was above 40 µg/mL in experiment [4], above 40 µg/mL in experiment [5], above 40 µg/mL in experiment [6] and 5 to 10 µg/mL in experiment [7].
The molecule `Cc1ccc(C(=O)O)s1` [compound 11326028, 5-methylthiophene-2-carboxylic acid] had an MIC in experiment [1] above 8 µg/mL. In addition, the “resistance of 81.10 mutant (mutated in ethA gene)” value in experiment [2] is reported as “resistant”.
As to `CCc1cc(C(N)=S)ccn1` [ETH, ethionamide, reference compound], the MIC in experiment [4] was 10 µg/mL (≈ 60.2 µM); in experiment [5], 10 µg/mL (≈ 60.2 µM); in experiment [6], 10 µg/mL (≈ 60.2 µM); in experiment [1], 0.5 µg/mL (≈ 3.01 µM); in experiment [7], 0.5 µg/mL (≈ 3.01 µM); in experiment [2], 10 µg/mL (≈ 60.2 µM).
Take `O=C(CCc1ccccc1)NC(=S)Nc1ccc(N2CCCCC2)cc1` [compound 7904688, 3-phenyl-N-[(4-piperidin-1-ylphenyl)carbamothioyl]propanamide]: the MIC is above 40 µg/mL in experiment [4]; above 40 µg/mL in experiment [5]; above 40 µg/mL in experiment [6]; 10 µg/mL (≈ 27.2 µM) in experiment [1]; 10 µg/mL (≈ 27.2 µM) in experiment [7]; above 40 µg/mL in experiment [2].
